Measured values published in ChEMBL document CHEMBL1139332, “Selective activity against Mycobacteriumtuberculosis of new quinoxaline 1,4-di-N-oxides” (Bioorg Med Chem, 2009).
Converted amounts (≈) assume the structure as drawn.

Columns and labels:
[1] = system: Mycobacterium tuberculosis; assay: Antimicrobial activity against Mycobacterium tuberculosis H37Rv by microplate alamar blue assay; type: functional
[2] = system: Mycobacterium tuberculosis; assay: Antimicrobial activity against Mycobacterium tuberculosis H37Rv at 6.25 ug/ml by microplate alamar blue assay; type: functional
[3] = system: Vero; assay: Cytotoxicity against african green monkey Vero cells after 72 hrs by MTT assay; type: cell-based, Chlorocebus sabaeus; conditions: Chlorocebus sabaeus, Vero, 72 h; read-out: IC50
[4] = Selectivity index, ratio of IC50 for african green monkey Vero cells to MIC for Mycobacterium tuberculosis H37Rv; type: functional

Structure (SMILES) | MIC [1] [µg/mL] | inhibition at 6.25 µg/mL [2] [%] | IC50 [3] [µg/mL] | Ratio [4]
CO[C@H]1/C=C/O[C@@]2(C)Oc3c(C)c(O)c4c(O)c(c(/C=N/N5CCN(C)CC5)c(O)c4c3C2=O)NC(=O)/C(C)=C\C=C\[C@H](C)[C@H](O)[C@@H](C)[C@@H](O)[C@@H](C)[C@H](OC(C)=O)[C@@H]1C [RIFAMPIN] | 0.125 (≈ 0.152 µM) | 90 | > 100 | >800
CCOC(=O)c1c(-c2ccc(C(F)(F)F)cc2)[n+]([O-])c2ccccc2[n+]1[O-] | 1.56 (≈ 4.12 µM) | 90 | 2.24 (≈ 5.92 µM) | 1.44
Cc1ccc2c(c1)[n+]([O-])c(C#N)c(-c1ccccc1)[n+]2[O-] | 0.39 (≈ 1.41 µM) | 90 | 3.6 (≈ 13 µM) | 9.2
N#Cc1c(-c2ccc(Cl)cc2)[n+]([O-])c2ccc(C(F)(F)F)cc2[n+]1[O-] | < 0.2 | 90 | 1.34 (≈ 3.66 µM) | >6.68
N#Cc1c(-c2ccc(Cl)cc2)[n+]([O-])c2ccc(F)cc2[n+]1[O-] | < 0.2 | 90 | 47.9 (≈ 152 µM) | >239.69
N#Cc1c(-c2ccc(F)cc2)[n+]([O-])c2ccc(C(F)(F)F)cc2[n+]1[O-] | < 0.2 | 90 | 0.99 (≈ 2.83 µM) | >4.94
COC(=O)c1ccc(-c2c(C#N)[n+]([O-])c3cc(C)ccc3[n+]2[O-])cc1 | 0.39 (≈ 1.16 µM) | 90 | 3.2 (≈ 9.54 µM) | 8.2
Cc1cc2c(cc1C)[n+]([O-])c(-c1ccccc1)c(C#N)[n+]2[O-] | 0.39 (≈ 1.34 µM) | 90 | 3.9 (≈ 13.4 µM) | 10
COC(=O)c1ccc(-c2c(C#N)[n+]([O-])c3ccccc3[n+]2[O-])cc1 | 0.78 (≈ 2.43 µM) | 90 | 4.8 (≈ 14.9 µM) | 6.2
CCOC(=O)c1c(-c2ccccc2)[n+]([O-])c2ccccc2[n+]1[O-] | 1.56 (≈ 5.03 µM) | 90 | 24.8 (≈ 79.8 µM) | 15.87
CCOC(=O)c1c(-c2ccc(Cl)cc2)[n+]([O-])c2ccccc2[n+]1[O-] | 0.39 (≈ 1.13 µM) | 90 | 4.8 (≈ 13.9 µM) | 12.31
N#Cc1c(-c2ccccc2)[n+]([O-])c2ccc(C(F)(F)F)cc2[n+]1[O-] | < 0.2 | 90 | 3.78 (≈ 11.4 µM) | >18.89
Cc1ccc2c(c1)[n+]([O-])c(C#N)c(-c1ccc(Cl)cc1)[n+]2[O-] | 0.39 (≈ 1.25 µM) | 90 | 0.45 (≈ 1.44 µM) | 1.15
COc1ccc2c(c1)[n+]([O-])c(C#N)c(-c1ccc(Cl)cc1)[n+]2[O-] | 0.78 (≈ 2.38 µM) | 90 | 1 (≈ 3.05 µM) | 1.3
Cc1cc2c(cc1C)[n+]([O-])c(-c1ccc(Cl)cc1)c(C#N)[n+]2[O-] | 0.78 (≈ 2.39 µM) | 90 | > 10 | >12.8
Cc1ccc(-c2c(C#N)[n+]([O-])c3cc(C)c(C)cc3[n+]2[O-])cc1 | 1.56 (≈ 5.11 µM) | 90 | > 62.5 | >40
COc1ccc(-c2c(C#N)[n+]([O-])c3cc(F)ccc3[n+]2[O-])cc1 | < 0.2 | 90 | 13 (≈ 41.9 µM) | 65.15
